Key:
[1] = test system: GARFT; conditions: Muggia, New Drugs, Concepts and Results in Cancer Chemotherapy, 1992; cited from earlier work
[2] = test system: CCRF-CEM; assay: In vitro growth inhibition of CCRF-CEM cells, Example 2 (MTT); assay type: cell-based; conditions: Homo sapiens, continuous exposure (title: 72-hour; method: 5 days), mean IC50, read-out: IC50 Cell Culture CCRF-CEM
Description: All cultures were maintained at 37° C. 5% air-CO2 in a humidified incubator.
Stock solutions of the inhibitors were prepared in 10 mM sodium bicarbonate in water and stored in i ml aliquots at -20° C. for cell culture experiments. Cell growth inhibition was measured by a modification of the method of Mosmann, J. Immunol. Methods 65 (1983), 55-63.
Mid-log phase cells of each cell line were diluted to 18,500 cells/ml in fresh RPMI growth medium (Mediatech, Washington, D.C.) supplemented with dialyzed fetal calf serum (Hyclone Laboratories Inc., Logan, Utah) and then aliquotted into columns 2 through 12 of 96-well microtiter plates. Column 1 was filled with the same volume ([…]) of fresh medium, without cells, for use as a blank. The plates were then placed in a 37° C., 5% air-CO2 incubator. After 1 to 4 hours, plates were removed from the incubator followed by addition of Compound (21) at 10× final concentration, […] in binary dilutions, to columns 12 to 4. […] The extent of metabolized MTT was measured spectrophotometrically at 540 nm on a Molecular Devices Vmax™ kinetic microplate reader. The concentration of drug required to reduce cell growth by 50% as measured by MTT metabolism was determined by interpolation between the O.D. (minus blank) immediately above and below 50% of control O.D. (minus blank). […]

[3] = test system: 6C3HED lymphosarcoma; assay: In vivo antitumor activity, 6C3HED lymphosarcoma implanted subcutaneously in C3H/He female mice
Description: (§1) On day zero, 2 mm^2 trocar fragments of 6C3HED lymphosarcoma were implanted subcutaneously in the axillary region into groups of six C3H/He female mice. Starting on day 1, the test compound was administered intraperitoneally in 40% Encapsin given once daily for nine days. Control animals received identical treatment without test compound. The percentage inhibition given in Table 5 below was calculated by comparing the mass of the control tumors (receiving diluent only) on day 11 to those of animals receiving test compound.

[4] = test system: C3H/BA mammary adenocarcinoma; assay: In vivo antitumor activity, C3H/BA mammary adenocarcinoma implanted subcutaneously in C3H/He female mice; conditions: day 14
Description: as §1, with “C3H/BA mammary adenocarcinoma” for “6C3HED lymphosarcoma”, “percentage of” for “percentage”, “inhibition” for “inhibition given in Table 5 below”, “14” for “11”

Row | SMILES | GARFT inhibition and antitumor activity (literature) [1] | IC50 [2] | % Inhibition (tumor mass) ([3]; 12.5 mg/kg i.p. once daily for nine days, day 11) | % Inhibition (tumor mass) ([3]; 25 mg/kg i.p. once daily for nine days, day 11) | % Inhibition (tumor mass) ([3]; 50 mg/kg i.p. once daily for nine days, printed as a word in the % Inhibition column) | % Inhibition (tumor mass) ([4]; 5 mg/kg i.p. once daily for nine days) | % Inhibition (tumor mass) ([4]; 10 mg/kg i.p. once daily for nine days) | % Inhibition (tumor mass) ([4]; 20 mg/kg i.p. once daily for nine days)
1 | Nc1nc2c(c(=O)[nH]1)CC(CCc1ccc(C(=O)N[C@@H](CCC(=O)O)C(=O)O)cc1)CN2 (some centres unmarked) [5,10-dideazatetrahydrofolic acid] | specific tight binding inhibitor of GARFT, 5,10-dideazatetrahydrofolic acid, has been reported to show antitumor activity | – | – | – | – | – | – | –
2 | Nc1nc2c(c(=O)[nH]1)SC(CCc1ccc(C(=O)N[C@@H](CCC(=O)O)C(=O)O)s1)CN2 (stereo partly drawn) [Compound 21, 4-[2-(2-Amino-4-oxo-4,6,7,8-tetrahydro-3H-pyrimido[5,4-6][1,4]thiazin-6-yl)-ethyl]-2,5-thienoylamino-L-glutamic acid] | – | 4.3 nM | 100% | 100% | toxic | 16% | 84% | 100%

— patent publication US5641774A, “Compounds useful as antiproliferative agents and garft inhibitors” (Agouron Pharmaceuticals, Inc., priority 1995, dated 1997)
